Measured values from US20190083521A1, “COMBINATION THERAPY FOR TREATING CANCER” (Epizyme, Inc., priority 2014, published 2019).
“Also recorded” adds a separate entry of the source. Where two headings read alike, the source gives them in different places.

What was measured:
Type in all cases: cell-based, human
[1] = system: MOLM-13 (MLL-AF9) cells; test: Combination proliferation assay with Compound A2 (CellTiter-Glo, Chou-Talalay CI); details: for Combination effect with Compound A2 (Table 4): MOLM-13 (MLL-AF9), 7 Day Cotreatment Model; for Combination effect, reverse order of addition with Ara-C washout: washed out, then Compound A2 7 days; for Combination effect with Compound A2 (Table 2): MOLM-13 MLL-AF9
How it was run: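 Viability by CellTiter-Glo ATP luminescence; fraction affected versus DMSO controls, combination index by Chou-Talalay (CI <1 synergy, >1 antagonism).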

[2] = system: MV4-11 (MLL-AF4) cells; test: as above; details: for Combination effect with Compound A2: 7 Day Cotreatment (Example 1); for Combination effect with Compound A2 (Table 2): MV4-11 MLL-AF4
How it was run: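 Viability by CellTiter-Glo ATP luminescence; fraction affected versus DMSO controls; combination index by Chou-Talalay method (CI <1 synergy, >1 antagonism).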

[3] = system: SKM-1 (non-MLL-rearranged AML) cells; test: as above
Method: (§1) Graphs representing values of combination index (CI) versus Fractional effect (Fa) known as Fa-CI plots were generated and synergy was evaluated.
(§2) Viability was determined using CellTiter-Glo® (Promega).
MV4-11 cells were maintained in IMDM supplemented with 10% fetal bovine serum. MOLM-13 and SKM-1 cells were maintained in Roswell Park Memorial Institute medium (RPMI) supplemented with 10% fetal bovine serum. They were cultured in flasks or plates in a humidified 5% CO2 atmosphere.
Proliferation studies were performed using MOLM-13, MV4-11 and SKM-1 cell lines in vitro to evaluate the cancer cell killing effect of a combination of two agents together on cell growth. Initial proliferation studies were performed to determine the IC50 values of a given compound in each cell line. The cell counts were measured by ATP quantitation using the Promega Cell Titer Glo kit and luminescence values correspond to the amount of ATP in a given well.
Compounds evaluated for synergy in the co-treatment phase were tested in a range which was bracketed around the IC50's. The compounds were plated to a 96 well plate in a matrix format which includes increasing concentrations of each drug in the combination in a constant ratio, in addition to the effect of each compound alone in the study. Cells were seeded and grown in the log-linear phase for 3 or 7 days in the cotreatment phase. Maximum and minimum inhibition (DMSO alone) controls were used in each plate to calculate fraction affected (Fa) of a test well. DMSO concentration was kept at 0.1% v/v. The drug combination analysis was performed utilizing the Chou-Talalay method. Synergy was determined using the software package Calcusyn by Biosoft. The combination index (CI) is the term used to describe the level of synergy or antagonism in a given test system. A combination index less than one indicates synergy, and a CI greater than one indicates antagonism.
The drug combination analysis was performed using the Chou-Talalay method. Graphs representing values of combination index (CI) versus Fractional effect (Fa) known as Fa-CI plots were generated and synergy was evaluated.

[4] = system: EOL-1 (MLL-PTD) cells; test: Combination proliferation assay with Compound A2 (Chou-Talalay CI)
Method: as §1, §2

[5] = system: KOPM-88 (MLL-PTD) cells; test: as above
Method: as §1, §2

[6] = system: MOLM-13 cells; test: Flow cytometric analysis of cell cycle and Annexin V (apoptosis)
Method: (§3) A Guava EasyCyte HT™ flow cytometer was used to measure DNA content, Annexin V staining and cell surface expression of CD14 and CD11b markers on Days 10 and 14.
(§4) On Day 0 MOLM-13 cells are seeded at 3,000 cells/mL. On Day 7 and Day 10 MOLM-13 cells are counted and reseeded at 50,000 cells/mL. […] On Day 10 They were redosed again. On Day 14 the experiment was terminated. Cells were sampled for CD14 and CD11b analysis on Days 7, 10 and 14.
To evaluate the fraction of cells in each cell cycle, flow cytometric analysis was performed. FACS analysis for detection of cell death by apoptosis, and cell cycle was performed.
Cells were harvested on days 7, 10 and 14 and split to allow simultaneous analysis of cell cycle and Annexin V staining. Apoptosis was determined using the Guava Nexin Assay (Millipore 4500-0450) and cells were prepared according to the manufacturer's recommendations. Samples were analyzed using the Guava EasyCyte Plus System (Millipore). Cells for cell cycle analysis were pelleted by centrifugation at 200×g for 5 minutes at 4° C., washed twice with ice cold PBS then fixed with 70% ice cold ethanol. All samples were analyzed together at end of experiment. Following fixation cells were washed with PBS and stained with the Guava cell cycle reagent (Millipore 4500-0220) for 30 minutes. Samples were analyzed using the Guava EasyCyte Plus System (Millipore).

[7] = system: MOLM-13 cells; test: CD11b and CD14 differentiation marker expression by flow cytometry; details: single agents
Method: as §3, §4
On day 7, 10, and 14, cells were collected for analysis. The cells were prepared by washing twice in PBS, followed by fixation in 4% formaldehyde for ten minutes at 37° C. After fixation cells were washed and blocked with blocking buffer for 10 minutes at room temperature. Cells were then incubated in presence of anti-CD14, anti-CD11b or anti-IgG antibody for 1 hour at room temperature while rotating. Cells were washed, re-suspended in PBS and 5,000 events were analyzed using ExpressPro software on the GuavaCyte Plus System.

[8] = SKM-1 non-MLL-rearranged (Example 5)
[9] = 14 day treatment, 156 nM Compound A2 or 63 nM Ara-C

With `Nc1ccn([C@@H]2O[C@H](CO)[C@@H](O)[C@@H]2O)c(=O)n1` [Ara-C, cytarabine] the “Combination effect with Compound A2 (Table 4)” value [1] was “Strong Synergy”, the “Combination effect with Compound A2” value ([1]; MOLM-13, 4 + 3 Model (4 days Compound A2 pretreatment, then 3 days co-treatment)) was “Synergy (A combination index less than one indicates synergy)” and the “Combination effect with Compound A2” value ([1]; MOLM-13, 7 Day Cotreatment (Example 1)) was “Synergy (A combination index less than one indicates synergy)”. The “Combination effect, reverse order of addition” value ([1]; MOLM-13, Ara-C 3 days, then Compound A2 and Ara-C co-treatment 7 days) was “Synergy (Drug synergy was statistically defined by CI values less than 1)”, the “Combination effect, reverse order of addition with Ara-C washout” value ([1]; MOLM-13, Ara-C 3 days) was “Combination benefit is maintained” and the “Combination effect, reverse order of addition with Ara-C washout” value ([1]; MOLM-13, Ara-C 3 days, listed as cytarabine) was “essentially the same level of synergistic cell killing”. For the same compound, the “Antiproliferative combination effect after Compound A2 washout” value ([1]; MOLM-13, Compound A2 washed out prior to addition of the SOC agent) was “durable combination benefit; also recorded: maintained”, the “Antiproliferative combination effect with Compound A2” value ([1]; MOLM-13, pre-treatment model, no Compound A2 washout) was “synergistic” and the “Combination effect with Compound A2 (Table 2)” value (“Combination effect … (Table 2)” for short) [1] was “Synergy (Drug synergy was statistically defined by CI values less than 1)”. The “Combination effect … (Table 2)” value ([1]; listed as cytarabine) was “synergistically”, the “Combination effect with Compound A2” value ([2]; MV4-11) was “Synergy (A combination index less than one indicates synergy)” and the “Antiproliferative combination effect after Compound A2 washout” value ([2]; MV4-11, Compound A2 washed out prior to addition of the SOC agent) was “maintained”. For the same compound, the “Antiproliferative combination effect with Compound A2” value ([2]; MV4-11, pre-treatment model, no Compound A2 washout) was “synergistic”, the “Combination effect … (Table 2)” value [2] was “synergistically” and the “Combination effect … (Table 2)” value ([3]; SKM-1 AML: Non-rearranged) was “did not act synergistically”. The “Effect of Compound A2 on antiproliferative activity of the second agent” value (“Effect of Compound A2” for short) [3, 8] was “did not affect”, the “Combination effect with Compound A2 (Table 3)” value (from here on “Combination effect … (Table 3)”) ([4]; EOL-1 (MLL-PTD)) was “Synergy (Drug synergy was statistically defined by CI values less than 1)” and the “Combination effect … (Table 3)” value ([5]; KOPM-88 (MLL-PTD)) was “Synergy (Drug synergy was statistically defined by CI values less than 1)”. The “Apoptosis in combination with Compound A2” value ([6]; 156 nM Compound A2 + 63 nM Ara-C) was “enhance apoptosis”, the “Sub-G1 cell population in combination with Compound A2” value ([6]; 156 nM Compound A2 + 63 nM Ara-C, at 10 and 14 days) was “significant increase” and the “Apoptotic cell population, single agent” value [6, 9] was “modest increase”. The “Sub-G1 cell population, single agent” value [6, 9] was “minimal effect” and the “Differentiation markers CD11b and CD14” value [7] was “time and concentration dependent up-regulation”.

In the case of `Nc1ncn([C@@H]2O[C@H](CO)[C@@H](O)[C@H]2O)c(=O)n1` [Azacitidine], the “Combination effect with Compound A2 (Table 4)” value [1] is reported as “Strong Synergy”, the “Combination effect … (Table 2)” value [1] is reported as “Synergy (Drug synergy was statistically defined by CI values less than 1)” and the “Combination effect with Compound A2” value ([2]; MV4-11) is reported as “Synergy (A combination index less than one indicates synergy)”. For the same compound, the “Combination effect … (Table 2)” value [2] was “Synergy (Drug synergy was statistically defined by CI values less than 1)”, the “Effect of Compound A2” value [3, 8] was “no impact” and the “Combination effect … (Table 3)” value ([4]; EOL-1 (MLL-PTD)) was “Synergy (Drug synergy was statistically defined by CI values less than 1)”. For the same compound, the “Combination effect … (Table 3)” value ([5]; KOPM-88 (MLL-PTD)) was “Synergy (Drug synergy was statistically defined by CI values less than 1)”.

`COc1cccc2c1C(=O)c1c(O)c3c(c(O)c1C2=O)C[C@@](O)(C(C)=O)C[C@@H]3O[C@H]1C[C@H](N)[C@H](O)[C@H](C)O1` [Daunorubicin] was tested, and the “Antiproliferative combination effect after Compound A2 washout” value [1] was “maintained”, the “Antiproliferative combination effect with Compound A2” value [1] was “synergistic” and the “Antiproliferative combination effect after Compound A2 washout” value [2] was “maintained”. The “Antiproliferative combination effect with Compound A2” value [2] was “synergistic”, the “Combination effect … (Table 2)” value [3] was “did not act synergistically” and the “Effect of Compound A2” value [3] was “did not affect”. For the same compound, the “Combination effect … (Table 3)” value [4] was “Synergy (key: Synergy: Drug synergy was statistically defined by CI values less than 1; Antagonistic: antagonism by CI>1; Additive: additive effect by CI equal to 1)” and the “Combination effect … (Table 3)” value [5] was “Synergy (key: Synergy: Drug synergy was statistically defined by CI values less than 1; Antagonistic: antagonism by CI>1; Additive: additive effect by CI equal to 1)”.
